Test results from patent publication US11131677B2 (University of Washington, priority 2018, dated 2021).
Non-standard residues stand in square brackets, D forms with d. Residues, ends and D or L forms follow the SMILES beside them. dPhe(4-NH2) = Nc1ccc(C[C@@H](N)C(=O)O)cc1; dPhe(4-Cl) = N[C@H](Cc1ccc(Cl)cc1)C(=O)O; Phe(4-NH2) = Nc1ccc(C[C@H](N)C(=O)O)cc1; d2Nal = N[C@H](Cc1ccc2ccccc2c1)C(=O)O; Lys(iPr) = CC(C)NCCCC[C@H](N)C(=O)O; d3Pal = N[C@H](Cc1cccnc1)C(=O)O

What was measured:
[1] = tested on: T production; conditions: normal men, single injection 300 μg/kg subcutaneous; cited from earlier work
[2] = Oral testosterone pharmacokinetics and serum metabolite profile (LC-MS/MS) in men with acyline-induced experimental hypogonadism, with and without dutasteride; format: in vivo, human; conditions: for Average AUC0-24 h with dutasteride, % with respect to T alone: T200+D vs T200; for Average AUC0-24 h with dutasteride, % as compared to T alone: T800+D vs T800; for AUC0-24 h, fold higher as compared to T AUC0-24 h: human serum, 800 mg dose; for AUC 0-24 h / t½: serum
Description: T emulsion in sesame oil, mixed with milk, was administered orally to human subjects with acyline-induced experimental hypogonadism. The blood samples were collected and the serum was isolated and stored in −80° C. Steroids and their metabolites were extracted from serum using protein precipitation followed by solid-phase extraction and analyzed by UPLC coupled with SCIEX 6500 MS/MS.
Clinical study design is discussed below. All subjects provided written, informed consent prior to any study procedures. The study was approved by the University of Washington (UW) Investigational Review Board Committee.
While study was conducted with 200, 400 and 800 mg T dose, only T200 and T800 were quantified. […] Samples were mixed for 1 min by vortex mixing, and then centrifuged for 10 min at 3500×g at 4° C. […] Samples (2 mL) were loaded onto the cartridges and flow through was discarded.
Data were acquired by Analyst 1.6 software.

[3] = tested on: 5-AR type 1 and 2; test: Dutasteride co-treatment with T in human hepatocyte culture; conditions: p<0.01 for decreases
Description: A targeted metabolomics study was performed on previously collected samples from an oral T pharmacokinetics (PK) study (800 mg). T and its primary and secondary metabolites in serum were quantified, and PK data of these steroids were analyzed using the non-compartmental method. […] Additionally, T-metabolism study was also performed in human hepatocytes for 1 h. The media and cell pellets were collected for subsequent metabolomics and proteomics analyses, respectively. Effect of dutasteride treatment on androgen metabolome was also investigated, both in vivo and in vitro.

[4] = molecular target: UGT2B15 (Homo sapiens, UniProt P54855)
Description: Oxazepam was used as a probe substrate for UGT2B15 activity by measuring oxazepam glucuronide formation (m/z 463.3→287.1, 269.1; DP 70; CE 20) with 10 μM oxazepam.

[5] = molecular target: UGT2B7 (Homo sapiens, UniProt P16662)
[6] = T200 + D (200 mg oral T with dutasteride)
[7] = T800 + D (800 mg oral T with dutasteride)

UGT2B15, sequence (P54855 24-530): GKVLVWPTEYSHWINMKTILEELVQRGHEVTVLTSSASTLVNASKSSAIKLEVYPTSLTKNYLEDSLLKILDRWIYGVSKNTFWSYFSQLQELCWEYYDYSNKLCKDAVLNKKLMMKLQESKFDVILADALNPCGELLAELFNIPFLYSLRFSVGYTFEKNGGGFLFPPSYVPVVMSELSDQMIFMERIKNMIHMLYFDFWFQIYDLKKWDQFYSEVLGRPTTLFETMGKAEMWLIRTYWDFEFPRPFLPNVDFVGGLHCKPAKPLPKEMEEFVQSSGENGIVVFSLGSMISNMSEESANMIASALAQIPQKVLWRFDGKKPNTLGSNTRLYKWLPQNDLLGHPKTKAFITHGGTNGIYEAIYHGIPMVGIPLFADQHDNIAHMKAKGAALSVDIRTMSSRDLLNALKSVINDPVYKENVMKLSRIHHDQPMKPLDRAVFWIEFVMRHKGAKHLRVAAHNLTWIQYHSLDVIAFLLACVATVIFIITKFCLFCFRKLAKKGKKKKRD
UGT2B7, sequence (P16662 24-529): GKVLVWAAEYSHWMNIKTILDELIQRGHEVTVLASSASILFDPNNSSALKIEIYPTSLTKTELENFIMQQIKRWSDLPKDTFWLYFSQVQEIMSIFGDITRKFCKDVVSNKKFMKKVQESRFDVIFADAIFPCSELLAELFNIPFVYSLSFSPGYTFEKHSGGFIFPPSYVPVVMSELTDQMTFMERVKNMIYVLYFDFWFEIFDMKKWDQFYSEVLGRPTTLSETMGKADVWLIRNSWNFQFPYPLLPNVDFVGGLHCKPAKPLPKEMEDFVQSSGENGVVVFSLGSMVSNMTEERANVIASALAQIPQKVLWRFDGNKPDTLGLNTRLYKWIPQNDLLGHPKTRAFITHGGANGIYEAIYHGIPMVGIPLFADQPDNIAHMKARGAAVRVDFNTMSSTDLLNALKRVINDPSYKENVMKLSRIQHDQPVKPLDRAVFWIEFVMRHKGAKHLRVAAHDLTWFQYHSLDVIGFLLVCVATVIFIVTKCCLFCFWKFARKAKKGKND

SMILES	Absolute level in pooled serum, fold of baseline eugonadal state ([2]; T200)	Average serum AUC0-24 h ([2]; T200)	Average AUC0-24 h with dutasteride, % with respect to T alone [2]	Absolute level in pooled serum, fold of baseline eugonadal state ([2]; T800)	Average AUC0-24 h with dutasteride, % as compared to T alone [2]	AUC0-24 h, fold higher as compared to T AUC0-24 h [2]	AUC 0-24 h ([2]; T200)	t½ ([2]; T200 (200 mg oral T))	t½ [2, 6]	AUC 0-24 h ([2]; T800)	t½ ([2]; T800 (800 mg oral T))	AUC 0-24 h ([2]; T800 + D)	t½ [2, 7]	Effect of dutasteride co-treatment on metabolite formation from T [3]	further results
CC(=O)Nc1ccc(C[C@H](NC(=O)[C@H](CO)NC(=O)[C@@H](Cc2cccnc2)NC(=O)[C@@H](Cc2ccc(Cl)cc2)NC(=O)[C@@H](Cc2ccc3ccccc3c2)NC(C)=O)C(=O)N[C@H](Cc2ccc(NC(C)=O)cc2)C(=O)N[C@@H](CC(C)C)C(=O)N[C@@H](CCCCNC(C)C)C(=O)N2CCC[C@H]2C(=O)N[C@H](C)C(N)=O)cc1 [acyline] (Ac-[d2Nal][dPhe(4-Cl)][d3Pal]S[Phe(4-NH2)](Ac)[dPhe(4-NH2)](Ac)L[Lys(iPr)]P[dA]-NH2)	–	–	–	–	–	–	–	–	–	–	–	–	–	–	Duration of suppression of T production [1]: ≥ 15 days
C[C@]12CC[C@@H](O[C@@H]3O[C@H](C(=O)O)[C@@H](O)[C@H](O)[C@H]3O)C[C@@H]1CC[C@@H]1[C@@H]2CC[C@]2(C)C(=O)CC[C@@H]12 [AG, Androsterone glucuronide]	9.5 fold	12,111 nmol/L-h	21%	29.7 fold	22%	389 fold	12.1108 µM·h	4.9 h	4.5 h	65.4278 µM·h	4.5 h	14.8677 µM·h	6.3 h	significant decreases	–
C[C@]12CC[C@@H](O[C@@H]3O[C@H](C(=O)O)[C@@H](O)[C@H](O)[C@H]3O)C[C@H]1CC[C@@H]1[C@@H]2CC[C@]2(C)C(=O)CC[C@@H]12 [EtioG, Etiocholanolone glucuronide]	13 fold	2160 nmol/L-h	151%	39.5 fold	180%	87 fold	2.1604 µM·h	5.2 h	10.5 h	14.9815 µM·h	7.8 h	27.0917 µM·h	9.9 h	–	–
C[C@]12CCC(=O)C[C@@H]1CC[C@@H]1[C@@H]2CC[C@]2(C)[C@@H](O[C@@H]3O[C@H](C(=O)O)[C@@H](O)[C@H](O)[C@H]3O)CC[C@@H]12 [DHTG, DHT-glucuronide]	7.5 fold	–	–	40.6 fold	–	–	–	–	–	–	–	–	–	–	–
Cc1ccc(NC(=O)c2ccc(CN3CCN(C)CC3)cc2)cc1Nc1nccc(-c2cccnc2)n1 [imatinib]	–	–	–	–	–	–	–	–	–	–	–	–	–	–	Inhibition of oxazepam (UGT2B15) glucuronidation [4]: No significant inhibition; Inhibition of naloxone (UGT2B7) glucuronidation [5]: No significant inhibition
C[C@]12CC[C@H]3[C@@H](C[C@@H](O)C4=CC(=O)CC[C@@]43C)[C@@H]1CC[C@@H]2O [6β-OH-T, 6β-hydroxytestosterone]	–	–	–	–	–	–	–	–	–	–	–	–	–	significant decreases	–
